Laboratory results: patent publication US9144229B2, “Tissue specific expression of antibodies in chickens” (Synageva BioPharma Corp., priority 2002, dated 2015)

System: chicken embryonic stem cells
Assay: Titration kill curve of chicken ES cells under puromycin or neomycin selection
Type: cell-based
Design: key to Morphology of cES cells: ES cells are present.; ES cells are differentiated.; gone: no morphologically recognizable cells are present
Method: In a preferred embodiment, the concentration of puromycin required for selecting transfected cells is calculated as a titration kill curve. Titration kill curves for chicken embryonic stem cells are established by exposing cells in culture to puromycin concentrations varying from 0.0 to 1.0 μg/ml for 10 days (Table 7) and neomycin concentrations varying from 0.0 to 200 μg/ml (Table 8). The medium is changed every 2 days and fresh puromycin or neomycin is added. […] Puromycin concentrations of 0.3-1.0 μg/ml are used for selection of the transfected cultures. Neomycin concentrations over 40 μg/ml eliminated all cES cells within 7 days (Table 8).

With `COc1ccc(C[C@H](N)C(=O)N[C@H]2[C@@H](O)[C@H](n3cnc4c(N(C)C)ncnc43)O[C@@H]2CO)cc1` [puromycin] the “presence of ES cells” value (0.3 μg/ml puromycin, 3 changes of medium over a six day period) was “absent from all wells”, the “Morphology of cES cells” value (puromycin 0.1 μg/ml, day 1) was “ES” and the “Morphology of cES cells” value (puromycin 0.1 μg/ml, day 2) was “ES”. The “Morphology of cES cells” value (puromycin 0.1 μg/ml, day 3) was “ES”, the “Morphology of cES cells” value (puromycin 0.1 μg/ml, day 4) was “ES” and the “Morphology of cES cells” value (puromycin 0.1 μg/ml, day 5) was “ES”. The “Morphology of cES cells” value (puromycin 0.1 μg/ml, day 6) was “ES”, the “Morphology of cES cells” value (puromycin 0.1 μg/ml, day 7) was “ES” and the “Morphology of cES cells” value (puromycin 0.1 μg/ml, day 8) was “ES”. The “Morphology of cES cells” value (puromycin 0.1 μg/ml, day 9) was “ES”, the “Morphology of cES cells” value (puromycin 0.1 μg/ml, day 10) was “ES” and the “Morphology of cES cells” value (puromycin 0.2 μg/ml, day 1) was “ES”. For the same molecule, the “Morphology of cES cells” value (puromycin 0.2 μg/ml, day 2) was “ES”, the “Morphology of cES cells” value (puromycin 0.2 μg/ml, day 3) was “ES” and the “Morphology of cES cells” value (puromycin 0.2 μg/ml, day 4) was “ES”. The “Morphology of cES cells” value (puromycin 0.2 μg/ml, day 5) was “ES”, the “Morphology of cES cells” value (puromycin 0.2 μg/ml, day 6) was “ES” and the “Morphology of cES cells” value (puromycin 0.2 μg/ml, day 7) was “ES”. For the same molecule, the “Morphology of cES cells” value (puromycin 0.2 μg/ml, day 8) was “ES”, the “Morphology of cES cells” value (puromycin 0.2 μg/ml, day 9) was “ES” and the “Morphology of cES cells” value (puromycin 0.2 μg/ml, day 10) was “ES”. For the same molecule, the “Morphology of cES cells” value (puromycin 0.25 μg/ml, day 1) was “ES”, the “Morphology of cES cells” value (puromycin 0.25 μg/ml, day 2) was “ES” and the “Morphology of cES cells” value (puromycin 0.25 μg/ml, day 3) was “ES”. The “Morphology of cES cells” value (puromycin 0.25 μg/ml, day 4) was “ES”, the “Morphology of cES cells” value (puromycin 0.25 μg/ml, day 5) was “ES” and the “Morphology of cES cells” value (puromycin 0.25 μg/ml, day 6) was “diff”. For the same molecule, the “Morphology of cES cells” value (puromycin 0.25 μg/ml, day 7) was “diff”, the “Morphology of cES cells” value (puromycin 0.25 μg/ml, day 8) was “diff/” and the “Morphology of cES cells” value (puromycin 0.25 μg/ml, day 9) was “diff/”. The “Morphology of cES cells” value (puromycin 0.25 μg/ml, day 10) was “diff/”, the “Morphology of cES cells” value (puromycin 0.3 μg/ml, day 1) was “ES” and the “Morphology of cES cells” value (puromycin 0.3 μg/ml, day 2) was “ES”. For the same molecule, the “Morphology of cES cells” value (puromycin 0.3 μg/ml, day 3) was “diff”, the “Morphology of cES cells” value (puromycin 0.3 μg/ml, day 4) was “diff/” and the “Morphology of cES cells” value (puromycin 0.3 μg/ml, day 5) was “diff/”. The “Morphology of cES cells” value (puromycin 0.3 μg/ml, day 6) was “gone”, the “Morphology of cES cells” value (puromycin 0.3 μg/ml, day 7) was “gone” and the “Morphology of cES cells” value (puromycin 0.3 μg/ml, day 8) was “gone”. For the same molecule, the “Morphology of cES cells” value (puromycin 0.3 μg/ml, day 9) was “gone”, the “Morphology of cES cells” value (puromycin 0.3 μg/ml, day 10) was “gone” and the “Morphology of cES cells” value (puromycin 0.4 μg/ml, day 1) was “ES”. For the same molecule, the “Morphology of cES cells” value (puromycin 0.4 μg/ml, day 2) was “diff”, the “Morphology of cES cells” value (puromycin 0.4 μg/ml, day 3) was “gone” and the “Morphology of cES cells” value (puromycin 0.4 μg/ml, day 4) was “gone”. For the same molecule, the “Morphology of cES cells” value (puromycin 0.4 μg/ml, day 5) was “gone”, the “Morphology of cES cells” value (puromycin 0.4 μg/ml, day 6) was “gone” and the “Morphology of cES cells” value (puromycin 0.4 μg/ml, day 7) was “gone”. The “Morphology of cES cells” value (puromycin 0.4 μg/ml, day 8) was “gone”, the “Morphology of cES cells” value (puromycin 0.4 μg/ml, day 9) was “gone” and the “Morphology of cES cells” value (puromycin 0.4 μg/ml, day 10) was “gone”. The “Morphology of cES cells” value (puromycin 0.5 μg/ml, day 1) was “diff”, the “Morphology of cES cells” value (puromycin 0.5 μg/ml, day 2) was “gone” and the “Morphology of cES cells” value (puromycin 0.5 μg/ml, day 3) was “Gone”. For the same molecule, the “Morphology of cES cells” value (puromycin 0.5 μg/ml, day 4) was “gone”, the “Morphology of cES cells” value (puromycin 0.5 μg/ml, day 5) was “gone” and the “Morphology of cES cells” value (puromycin 0.5 μg/ml, day 6) was “gone”. For the same molecule, the “Morphology of cES cells” value (puromycin 0.5 μg/ml, day 7) was “gone”, the “Morphology of cES cells” value (puromycin 0.5 μg/ml, day 8) was “gone” and the “Morphology of cES cells” value (puromycin 0.5 μg/ml, day 9) was “gone”. For the same molecule, the “Morphology of cES cells” value (puromycin 0.5 μg/ml, day 10) was “gone”, the “Morphology of cES cells” value (puromycin 0.6 μg/ml, day 1) was “diff” and the “Morphology of cES cells” value (puromycin 0.6 μg/ml, day 2) was “gone”. The “Morphology of cES cells” value (puromycin 0.6 μg/ml, day 3) was “gone”, the “Morphology of cES cells” value (puromycin 0.6 μg/ml, day 4) was “gone” and the “Morphology of cES cells” value (puromycin 0.6 μg/ml, day 5) was “gone”. For the same molecule, the “Morphology of cES cells” value (puromycin 0.6 μg/ml, day 6) was “gone”, the “Morphology of cES cells” value (puromycin 0.6 μg/ml, day 7) was “gone” and the “Morphology of cES cells” value (puromycin 0.6 μg/ml, day 8) was “gone”. The “Morphology of cES cells” value (puromycin 0.6 μg/ml, day 9) was “gone”, the “Morphology of cES cells” value (puromycin 0.6 μg/ml, day 10) was “gone” and the “Morphology of cES cells” value (puromycin 0.7 μg/ml, day 1) was “diff”. The “Morphology of cES cells” value (puromycin 0.7 μg/ml, day 2) was “gone”, the “Morphology of cES cells” value (puromycin 0.7 μg/ml, day 3) was “gone” and the “Morphology of cES cells” value (puromycin 0.7 μg/ml, day 4) was “gone”. For the same molecule, the “Morphology of cES cells” value (puromycin 0.7 μg/ml, day 5) was “gone”, the “Morphology of cES cells” value (puromycin 0.7 μg/ml, day 6) was “gone” and the “Morphology of cES cells” value (puromycin 0.7 μg/ml, day 7) was “gone”. For the same molecule, the “Morphology of cES cells” value (puromycin 0.7 μg/ml, day 8) was “gone”, the “Morphology of cES cells” value (puromycin 0.7 μg/ml, day 9) was “gone” and the “Morphology of cES cells” value (puromycin 0.7 μg/ml, day 10) was “gone”. For the same molecule, the “Morphology of cES cells” value (puromycin 0.8 μg/ml, day 1) was “gone”, the “Morphology of cES cells” value (puromycin 0.8 μg/ml, day 2) was “gone” and the “Morphology of cES cells” value (puromycin 0.8 μg/ml, day 3) was “gone”. The “Morphology of cES cells” value (puromycin 0.8 μg/ml, day 4) was “gone”, the “Morphology of cES cells” value (puromycin 0.8 μg/ml, day 5) was “gone” and the “Morphology of cES cells” value (puromycin 0.8 μg/ml, day 6) was “gone”. The “Morphology of cES cells” value (puromycin 0.8 μg/ml, day 7) was “gone”, the “Morphology of cES cells” value (puromycin 0.8 μg/ml, day 8) was “gone” and the “Morphology of cES cells” value (puromycin 0.8 μg/ml, day 9) was “gone”. The “Morphology of cES cells” value (puromycin 0.8 μg/ml, day 10) was “gone”.
